Read-outs that look alike come from different tables or passages of the source.
How the values were obtained:
Assay in all cases: microbe, parasite or virus in culture
Type in all cases: cell-based, Hepatitis C virus (HCV)
[1] = system: HCV replicon 2B; settings: Replicon Assay A
Summary of the method: (§1)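 Compound is added to replicon cells plated at 2000 cells/well (0.5% DMSO, 5% FBS). After 3 days the cells are washed and lysed, and HCV RNA and cyclophilin mRNA are quantified by multiplex RT-PCR against a standard curve of known replicon total RNA.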

[2] = system: HCV replicon 1A; settings: Replicon Assay A
Summary of the method: as §1

[3] = system: HCV replicon 1AY93H; settings: Replicon Assay A
Summary of the method: as §1

[4] = system: HCV replicon 1AQ30D; settings: Replicon Assay B
[5] = system: HCV replicon 1B; settings: Replicon Assay B
[6] = read-out: 1A Y93H IC50, replicon 1AY93H
[7] = Hepatitis C virus, read-out: 1A Q30D IC50 (nM), replicon 1AQ30D
[8] = read-out: 1A Q30D IC50, replicon 1AQ30D
[9] = Hepatitis C virus, HCV replicon 1A
[10] = Hepatitis C virus, read-out: 1A Q30D IC50, HCV replicon 1A Q30D
[11] = Hepatitis C virus, HCV replicon 1B
[12] = Hepatitis C virus, read-out: 2B IC50 (nM), replicon 2B
[13] = Hepatitis C virus, read-out: 1A Y93H IC50 (nM), replicon 1AY93H
[14] = read-out: 2B IC50, HCV replicon 2B
[15] = read-out: 1A Y93H IC50, HCV replicon 1A Y93H
[16] = read-out: 1A Q30D IC50, HCV replicon 1A Q30D

SMILES | IC50 ([1]; read-out: 2B IC50, replicon 2B) [nM] | IC50 ([2]; replicon 1A) [pM] | IC50 [3, 6] [nM] | IC50 [4, 7] [nM] | IC50 ([5]; Hepatitis C virus, replicon 1B) [pM] | IC50 [4, 8] [nM] | IC50 ([5]; replicon 1B) [pM] | further results
COC(=O)NC(C(=O)N1CCC[C@H]1c1ncc(-c2cc(F)c3c(c2)OC(c2ccc(C4CCC4)s2)n2c-3cc3cc(-c4cnc([C@@H]5CCCN5C(=O)[C@@H](NC(=O)OC)C5CCOCC5)[nH]4)ccc32)[nH]1)C(C)(C)F (single isomer, unassigned) [Compound 248] | 0.076 | 2.5 | 0.11 | 0.43 | 3.2 |  |  | 
CCc1ccc(C2Oc3cc(-c4cnc([C@@H]5CCCN5C(=O)[C@@H](NC(=O)OC)C(C)C)[nH]4)cc(F)c3-c3cc4cc(-c5cnc([C@@H]6CCCN6C(=O)[C@@H](NC(=O)OC)C6CCOCC6)[nH]5)ccc4n32)s1 (single isomer, unassigned) [Compound 337] | 0.0039 | 1.6 | 0.0021 |  |  | 0.0266 | 1.6 | 
COC(=O)NC(C(=O)N1CCC[C@H]1c1ncc(-c2ccc3c(c2)cc2n3C(c3ccc(C4CC4)s3)Oc3cc(-c4cnc([C@@H]5CCCN5C(=O)[C@@H](NC(=O)OC)C5CCOCC5)[nH]4)cc(F)c3-2)[nH]1)C(C)(C)F (single isomer, unassigned) [Compound 173] | 0.35 | 1.7 | 0.098 |  |  | 0.28 | 2.1 | 
COC(=O)N[C@H](C(=O)N1CCC[C@H]1c1ncc(-c2ccc3c(c2)OC(c2ccc(C4CC4)s2)n2c-3c(F)c3cc(-c4cnc([C@@H]5C[C@H]6C[C@H]6N5C(=O)[C@@H](NC(=O)OC)C5C[C@@H](C)O[C@@H](C)C5)[nH]4)ccc32)[nH]1)C(C)C (single isomer, unassigned) [Compound 406] |  |  |  |  |  |  |  | IC50 ([1]; Hepatitis C virus, read-out: 2B IC50, HCV replicon 2B): 0.0161 nM; IC50 [2, 9]: 2.3 pM; IC50 ([3]; Hepatitis C virus, read-out: 1A Y93H IC50, HCV replicon 1A Y93H): 0.0041 nM; IC50 [4, 10]: 0.0824 nM; IC50 [5, 11]: 2.8 pM
COC(=O)NC(C(=O)N1CCC[C@H]1c1ncc(-c2ccc3c(c2)cc2n3C(c3ccc(CC4CC4)s3)Oc3cc(-c4cnc([C@@H]5CCCN5C(=O)[C@@H](NC(=O)OC)C(C)C)[nH]4)cc(F)c3-2)[nH]1)C1CCO[C@H](C)C1 (stereo partly shown) [Compound 368] | 0.0028 | 2.6 | 0.0047 |  |  | 0.0304 | 3.1 | 
COC(=O)NC(C(=O)N1CCC[C@H]1c1ncc(-c2ccc3c(c2)cc2n3C(c3ccc(C4CC4)s3)Oc3cc(-c4cnc([C@@H]5CCCN5C(=O)[C@@H](NC(=O)OC)C(C)C)[nH]4)cc(F)c3-2)[nH]1)C1(F)CCOCC1 (single isomer, unassigned) [Compound 364] |  |  |  | 0.498 | 2.3 |  |  | IC50 [1, 12]: 0.0872 nM; IC50 ([2]; Hepatitis C virus, replicon 1A): 2 pM; IC50 [3, 13]: 0.0869 nM
COC(=O)N[C@H](C(=O)N1CCC[C@H]1c1ncc(-c2cc(F)c3c(c2)OC(c2cc4c(s2)CCC4)n2c-3cc3cc(-c4cnc([C@@H]5CCCN5C(=O)[C@@H](NC(=O)OC)C5CCOCC5)[nH]4)ccc32)[nH]1)C(C)C (single isomer, unassigned) [Compound 620] |  |  |  |  |  |  |  | IC50 [1, 14]: 0.0102 nM; IC50 [2, 9]: 2.3 pM; IC50 [3, 15]: 0.0059 nM; IC50 [4, 10]: 0.114 nM; IC50 [5, 11]: 1.9 pM
CCc1ccc(C2Oc3cc(-c4cnc([C@@H]5CCCN5C(=O)[C@@H](NC(=O)OC)C(C)C)[nH]4)cc(F)c3-c3cc4cc(-c5cnc([C@@H]6CCCN6C(=O)[C@@H](NC(=O)OC)C(C)C)[nH]5)ccc4n32)s1 (single isomer, unassigned) [Compound 3] |  |  |  | 50.6 | 1.2 |  |  | IC50 [1, 12]: 4.45 nM; IC50 ([2]; Hepatitis C virus, replicon 1A): 3.6 pM; IC50 [3, 13]: 4.7 nM
COC(=O)N[C@H](C(=O)N1CCC[C@H]1c1ncc(-c2ccc3c(c2)OC(c2cc4ccccc4s2)n2c-3cc3cc(-c4cnc([C@@H]5C[C@@H](F)CN5C(=O)[C@@H](NC(=O)OC)C5CCOCC5)[nH]4)ccc32)[nH]1)C1CCOCC1 (single isomer, unassigned) [Compound 813] |  |  |  |  |  |  |  | IC50 [1, 14]: 0.018 nM; IC50 ([2]; HCV replicon 1A): 43 pM; IC50 [3, 15]: 0.038 nM; IC50 [4, 10]: 1.4 nM; IC50 [5, 11]: 87 pM
CCc1ccc(C2Oc3cc(-c4cnc([C@@H]5CCCN5C(=O)C(NC(=O)OC)C5CCOC(C)(C)C5)[nH]4)cc(F)c3-c3cc4cc(-c5cnc([C@@H]6CCCN6C(=O)C(NC(=O)OC)C6CCOC(C)(C)C6)[nH]5)ccc4n32)s1 (single isomer, unassigned) [Compound 295] | 0.004 | 3.2 | 0.005 |  |  | 0.017 | 2.8 | 
CCc1ccc(C2Oc3cc(-c4cnc([C@@H]5CCCN5C(=O)[C@@H](NC(=O)OC)C(C)C)[nH]4)cc(F)c3-c3cc4cc(-c5cnc([C@@H]6C[C@H]7C[C@H]7N6C(=O)C(NC(=O)OC)C6CCOC(C)(C)C6)[nH]5)ccc4n32)s1 (single isomer, unassigned) [Compound 200] | 0.014 | 2.1 | 0.002 |  | 3 | 0.036 |  | 
COC(=O)N[C@H](C(=O)N1CCC[C@H]1c1ncc(-c2cc(F)c3c(c2)OC(c2cc4c(s2)CCC4)n2c-3cc3cc(-c4cnc([C@@H]5C[C@H]6C[C@H]6N5C(=O)[C@@H](NC(=O)OC)C5CCOCC5)[nH]4)ccc32)[nH]1)C(C)C (single isomer, unassigned) [Compound 542] |  |  |  |  |  |  |  | IC50 [1, 14]: 0.0335 nM; IC50 ([2]; HCV replicon 1A): 3.42 pM; IC50 [3, 15]: 0.00855 nM; IC50 [4, 16]: 0.162 nM; IC50 ([5]; HCV replicon 1B): 3.71 pM
COC(=O)N[C@H](C(=O)N1CCC[C@H]1c1ncc(-c2cc(F)c3c(c2)OC(c2ccc(CC4CC4)s2)n2c-3cc3cc(-c4cnc([C@@H]5C[C@H]6C[C@H]6N5C(=O)[C@@H](NC(=O)OC)C(C)C)[nH]4)ccc32)[nH]1)C(C)C (single isomer, unassigned) [Compound 389] | 0.0691 |  | 0.0137 | 0.23 | 3.9 |  |  | IC50 ([2]; Hepatitis C virus, replicon 1A): 2.7 pM
CCc1ccc(C2Oc3cc(-c4cnc([C@@H]5CCCN5C(=O)[C@@H](NC(=O)OC)C(C)C)[nH]4)cc(F)c3-c3cc4cc(-c5cnc([C@@H]6C[C@@H](F)CN6C(=O)C(NC(=O)OC)C6CCOC(C)(C)C6)[nH]5)ccc4n32)s1 (single isomer, unassigned) [Compound 259] | 0.32 | 3.1 | 0.002 |  |  | 0.31 | 3.3 | 
COC(=O)N[C@H](C(=O)N1CCC[C@H]1c1ncc(-c2cc(F)c3c(c2)OC(c2ccc(C#N)s2)n2c-3cc3cc(-c4cnc([C@@H]5CCCN5C(=O)[C@@H](NC(=O)OC)C(C)C)[nH]4)ccc32)[nH]1)C(C)C (single isomer, unassigned) [Compound 18] | 3.46 | 2.2 | 3.13 |  |  | 66.7 | 3 | 
CCc1ccc(C2Oc3cc(-c4cnc([C@@H]5CCCN5C(=O)[C@@H](NC(=O)OC)C(C)C)[nH]4)cc(F)c3-c3cc4cc(-c5cnc([C@@H]6C[C@@H](F)CN6C(=O)C(NC(=O)OC)C6CCOC(C)(C)C6)[nH]5)ccc4n32)s1 (single isomer, unassigned) [Compound 258] | 0.43 | 1.8 | 0.004 |  | 2.7 | 1.2 |  | 
COC(=O)N[C@H](C(=O)N1CCC[C@H]1c1ncc(-c2cc(F)c3c(c2)OC(c2ccc(C#CC4CC4)s2)n2c-3cc3cc(-c4cnc([C@@H]5CCCN5C(=O)[C@@H](NC(=O)OC)C(C)C)[nH]4)ccc32)[nH]1)C(C)C (single isomer, unassigned) [Compound 86] | 0.033 | 1.6 | 0.003 | 0.11 | 1.6 |  |  | 
COC(=O)N[C@H](C(=O)N1CCC[C@H]1c1ncc(-c2cc(F)c3c(c2)OC(c2ccc(CC4CC4)s2)n2c-3cc3cc(-c4cnc([C@@H]5CCCN5C(=O)[C@@H](NC(=O)OC)C(C)C)[nH]4)ccc32)[nH]1)C(C)C (single isomer, unassigned) [Compound 54] |  | 2 |  |  |  |  | 1.2 | IC50 ([1]; replicon 2B, read-out: 2B IC50): 0.03 nM; IC50 ([3]; replicon 1AY93H, read-out: 1A Y93H IC50): 0.005 nM; IC50 ([4]; replicon 1AQ30D, read-out: 1A Q30D IC50): 0.2 nM
COC(=O)N[C@H](C(=O)N1CCC[C@H]1c1ncc(-c2ccc3c(c2)OC(c2ccc(C4CC4)s2)n2c-3c(F)c3cc(-c4cnc([C@@H]5C[C@H]6C[C@H]6N5C(=O)[C@@H](NC(=O)OC)C(C)C)[nH]4)ccc32)[nH]1)C(C)C (single isomer, unassigned) [Compound 613] |  |  |  |  |  |  |  | IC50 [1, 14]: 0.342 nM; IC50 ([2]; HCV replicon 1A): 2.5 pM; IC50 [3, 15]: 0.0157 nM; IC50 [4, 16]: 0.992 nM; IC50 ([5]; HCV replicon 1B): 2.3 pM
COC(=O)N[C@H](C(=O)N1CCC[C@H]1c1ncc(-c2cc(F)c3c(c2)OC(c2ccc(C(=O)N(C)C)s2)n2c-3cc3cc(-c4cnc([C@@H]5CCCN5C(=O)[C@@H](NC(=O)OC)C(C)C)[nH]4)ccc32)[nH]1)C(C)C (single isomer, unassigned) [Compound 104] | 0.073 | 4.3 | 0.046 | 1.11 | 5.1 |  |  | 
